Test results: patent US7968526B2, “Antisense oligonucleotides directed to ribonucleotide reductase R2 and uses thereof in the treatment of cancer” (Lorus Therapeutics Inc., priority 2003, dated 2011)
“Also recorded” adds a separate entry of the source.

Legend:
[1] = Phase I study of SEQ ID NO:1: pharmacokinetics; settings: patients
Protocol: On Day 1 a heparinized blood sample was collected at baseline and then at 1, 2, 3, 4 and 6 hours after start of infusion. On Days 8 and 15, a single heparinized sample was taken. On Day 22 a heparinized blood sample was collected prior to the end of infusion and at 0.25, 0.5, 1, 2, 4 and 6 hours following the end of infusion. Plasma was decanted and stored at −70° C.
Pharmacokinetic parameters were assessed. SEQ ID NO:1 was administered using a portable infusion pump in cycles of 21 days CVI followed by one week of rest. […] Doses were doubled in cohorts of 1-3 patients until the appearance of Gr 1 toxicity, with subsequent escalation of 20-30% in cohorts of 3 patients. DLT was defined as Gr 4 neutropenia lasting 3 days or with fever; Gr 4 thrombocytopenia (T) or Gr 3 T with Gr 1 bleeding; or Gr 3 non-hematologic toxicity.

[2] = tested on: A498 human kidney cancer cells; test: A498 kidney tumour xenograft in SCID mice, controls and chemotherapeutics (Example 7); assay type: in vivo, human cells in mice; settings: oligonucleotides 10 mg/kg/2 days i.v., 5-FU 13 mg/kg/day×5, vinblastine 1 mg/kg/week, gemcitabine 100 mg/kg/week
Excerpt: CD-1 athymic female nude mice, BALB/c nu/nu nude mice, SCID, and SCID beige mice were purchased from Charles River Laboratories (Montreal, Canada) and experiments were typically initiated when the mice were 6-7 weeks old. […] Each experimental group typically contained 10 mice. After the size of tumour reached a mean tumour volume of 50-100 mm^3, treatment was initiated. […] Anti-tumour activity was estimated by the measurement of tumour volume with a calliper at two-three day intervals. Tumour volume was calculated by a formula L×W×H/2, where L indicates length, W indicates width and H indicates height. Within 24 hours after the last treatment, the animals were sacrificed and tumour and body weights were measured. Results of statistical analyses of the data are presented as P values in the figure legends.
Three additional treatment groups received: 5-FU (13 mg/kg/day×5), vinblastine (1 mg/kg/week) and gemcitabine (100 mg/kg/week). […] Caliper measurements at 1-week intervals were used to calculate tumour volumes. Each point in FIG. 28C represents mean tumour volume calculated from 10 animals per experimental group (with the exception of SEQ ID NO: 1 which was 8 animals). […] After 54 days the mice were sacrificed and the A498 tumours weighed. Each bar represents the mean tumour weight and standard error calculated for each treatment group.

[3] = tested on: A2058 human melanoma cells; test: A2058 melanoma xenograft in CD-1 nude mice, combination with DTIC (1.6); assay type: in vivo, human cells in mice; settings: SEQ ID NO:1 10 mg/kg i.v. every other day, DTIC 80 mg/kg i.v. days 6-10
Protocol: After 52 days the mice were sacrificed and the tumours weighed. […] Mitoxantrone was administered intravenously once at the beginning of the treatments at a dose of 2 mg/kg (FIG. 4A) or once a week for four weeks at a reduced dose of 0.8 mg/kg (FIG. 4B). All treatments were stopped at day 50 (FIG. 4A) or 48 (FIG. 4B), respectively. […] Mitoxantrone was administered intravenously once at the beginning of the treatments at a dose of 2 mg/kg (FIG. 5A) or once a week for four weeks at a reduced dose of 0.8 mg/kg (FIG. 5B). All treatments were stopped at day 42 (FIG. 5A) or 38 (FIG. 5B), respectively. […] A2058 is a metastatic melanoma cell line. […] All treatments were stopped at day 24. […] Taxol was administered intravenously once a week at a dose of 10 mg/kg for three (FIG. 7A) or four weeks (FIG. 7C). Doxorubicin was administered intravenously once a week at a dose of 5 mg/kg for first three weeks (FIG. 7A) or for two weeks (FIG. 7C). All treatments were stopped at day 33 (FIG. 7A) or at day 26 (FIG. 7C), respectively. […] In FIG. 7C, antitumour activities were estimated by the inhibition of tumour volume, which was measured with calipers. Each point represents mean tumour volume calculated from 10 animals per experimental group. […] Taxol was administered intravenously once a week for first three weeks and intraperitoneally once a week for next two weeks at a dose of 10 mg/kg. Cisplatin was administered intravenously once a week for first three weeks and intraperitoneally once a week for next two weeks at a dose of 4 mg/kg. All treatments were stopped at day 40. Antitumour activities were estimated by the inhibition of tumour volume, which was measured with caliper. Each point represents mean tumour volume calculated from 9 animals per experimental group.

[4] = tested on: Caki-1 human renal cancer cells; test: Caki-1 renal tumour xenograft, combination with 5-FU or vinblastin (1.3); assay type: in vivo, human cells in mice
Excerpt: All treatments were stopped at day 22. […] All treatments were stopped at day 32. […] All treatments were stopped at day 36.

5′-GGCTAAATCGCTCCACCAAG-3′ (all phosphorothioate, sugars by position and methylation of C not given here) [SEQ ID NO: 1, fully phosphorothioated antisense oligonucleotide that hybridizes to the coding region of R2 mRNA]
AUC, mean (coefficient of variation) ([1]; 37 mg/m^2/day CVI): 7.54 (141)^$ μg · hr/ml | Clearance ([1]; 37 mg/m^2/day CVI): 595 L/m^2/day | Cmax, mean (coefficient of variation) ([1]; 37 mg/m^2/day CVI): 0.09 (141) μg/ml | Css, mean (coefficient of variation) ([1]; 37 mg/m^2/day CVI): 0.03 (141) μg/ml | AUC, mean (coefficient of variation) ([1]; 74 mg/m^2/day CVI): 15.5 (141) μg · hr/ml | Cmax, mean (coefficient of variation) ([1]; 74 mg/m^2/day CVI): 0.61 (141) μg/ml | AUC, mean (coefficient of variation) ([1]; 148 mg/m^2/day CVI): 426 (87) μg · hr/ml | Clearance, mean (coefficient of variation) ([1]; 148 mg/m^2/day CVI): 244 (90) L/m^2/day | Cmax, mean (coefficient of variation) ([1]; 148 mg/m^2/day CVI): 2.2 (41) μg/ml | Css, mean (coefficient of variation) ([1]; 148 mg/m^2/day CVI): 0.77 (94) μg/ml | T1/2, mean (coefficient of variation) ([1]; 148 mg/m^2/day CVI): 0.79 (25) hr | AUC, mean (coefficient of variation) ([1]; 185 mg/m^2/day CVI): 340 (67) μg · hr/ml | Clearance, mean (coefficient of variation) ([1]; 185 mg/m^2/day CVI): 558 (119) L/m^2/day | Cmax, mean (coefficient of variation) ([1]; 185 mg/m^2/day CVI): 2.15 (57) μg/ml | Css, mean (coefficient of variation) ([1]; 185 mg/m^2/day CVI): 0.63 (98) μg/ml | T1/2, mean (coefficient of variation) ([1]; 185 mg/m^2/day CVI): 2.74 (171) hr | AUC, mean (coefficient of variation) ([1]; 222 mg/m^2/day CVI): 380 (94) μg · hr/ml | Clearance, mean (coefficient of variation) ([1]; 222 mg/m^2/day CVI): 483 (161) L/m^2/day | Cmax, mean (coefficient of variation) ([1]; 222 mg/m^2/day CVI): 2.98 (99) μg/ml | Css, mean (coefficient of variation) ([1]; 222 mg/m^2/day CVI): 1.24 (87) μg/ml | T1/2, mean (coefficient of variation) ([1]; 222 mg/m^2/day CVI): 1.43 (46) hr | mean steady-state plasma concentration ([1]; phase II dose (185 mg/m^2/day), preliminary analysis): 0.6 µg/mL | t1/2 ([1]; preliminary analysis): about 2 hrs | Effect on tumour growth (volume and weight) [2]: dramatic inhibition in growth of Caki-1 and A498 renal tumours; also recorded: superior to any of these compounds | Tumour weight as % of saline control ([3]; A2058 (melanoma), CD-1): 20% | Antitumour effect (tumour weight, FIG. 6) ([3]; A2058, CD-1 nude mice): significant delay of tumour growth compared to saline control; also recorded: superior to the inhibitory effects observed with DTIC alone | Tumour weight as % of saline control ([4]; Caki (renal), CD-1 mouse as printed, SEQ ID NO:1 10 mg/kg i.v. every other day, 5-FU 13 mg/kg/day i.p., vinblastin 0.6 mg/kg/week i.p.): 3.3% | Antitumour effect (tumour weight, FIG. 3A) ([4]; Caki-1, SCID mice, SEQ ID NO:1 10 mg/kg i.v. every other day, 5-FU 13 mg/kg/day i.p., vinblastin 0.6 mg/kg/week i.p.): significant delay of tumour growth compared to saline control; also recorded: superior to the inhibitory effects observed with each of two chemotherapeutic compounds | Inhibition of tumour size ([4]; Human Renal Carcinoma^2 (second entry of Table 5)): Approximately 97% inhibition of tumour size
